Experimental findings from patent publication US10645928B2, “Pesticidally active polycyclic derivatives with sulfur containing substituents” (Syngenta Participations AG, priority 2014, dated 2020) are described below.

Series [1] has as its system Diabrotica balteata (Corn Root Worm). Put plainly: Example B3: Diabrotica balteata, sprayed maize sprouts, mortality. Format: in vivo. The following applies: 96 h, application rate of 200 ppm, L2 larvae, 4 days after infestation. The method, then: Maize sprouts placed onto an agar layer in 24-well microtiter plates were treated with aqueous test solutions prepared from 10,000 ppm DMSO stock solutions by spraying. After drying, the plates were infested with L2 larvae (6 to 10 per well). The samples were assessed for mortality 4 days after infestation.

Series [2] deals with Spodoptera littoralis (Egyptian Cotton Leaf Worm). Put plainly: Example B16: Spodoptera littoralis, sprayed cotton leaf discs, mortality. The series is classed as in vivo. The following applies: foliar, 72 h, application rate of 200 ppm, L1 larvae, 3 days after infestation. On the procedure: Cotton leaf discs were placed onto agar in 24-well microtiter plates and sprayed with aqueous test solutions prepared from 10,000 ppm DMSO stock solutions. After drying the leaf discs were infested with five L1 larvae. The samples were assessed for mortality 3 days after infestation.

Series [3] shares this test system. Put plainly: Example B19: Spodoptera littoralis, compound in agar absorbed by lettuce roots, anti-feedant effect. The following applies: 144 h, test rate of 12.5 ppm, uptake by lettuce roots, Spodoptera eggs, 6 days after infestation, read-out: anti-feeding. Format: in vivo. The method, boiled down:
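Compound from DMSO stock mixed into agar; lettuce seedlings took it up via roots over 7 days, then cut leaves were infested with Spodoptera eggs. Anti-feedant effect scored 6 days after infestation relative to untreated samples.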

Series [4] deals with Aedes aegypti (Yellow Fever Mosquito). Put plainly: Example B23: Aedes aegypti, dry deposits in 12 well tissue culture plates, control. Format: in vivo. The note with it: application rate of 200 ppm in ethanol, adult females, after 48 h and/or 24 h. On the procedure: Test solutions, at an application rate of 200 ppm in ethanol, were applied to 12 well tissue culture plates. Once the deposits were dry, five, two to five day old adult female Aedes aegypti were added to each well, and sustained with a 10% sucrose solution in a cotton wool plug. Assessment of knockdown was made one hour after introduction, and mortality was assessed at 24 and 48 hours after introduction.

Series [5] has as its system Euschistus heros (Neotropical Brown Stink Bug). The series can be described thus: Example B6: Euschistus heros, sprayed soybean leaves, mortality and growth inhibition. The series is classed as in vivo. The note with it: 120 h, application rate of 200 ppm, N2 nymphs, 5 days after infestation, read-out: effect in at least one of the two categories (mortality or growth inhibition). The method, then:
Soybean leaves on agar in 24-well microtiter plates were sprayed with aqueous test solutions prepared from 10,000 ppm DMSO stock solutions. After drying the leaves were infested with N2 nymphs. The samples were assessed for mortality and growth inhibition in comparison to untreated samples 5 days after infestation.

Series [6] deals with Spodoptera littoralis (Egyptian Cotton Leaf Worm). Put plainly: Example B14: Spodoptera littoralis, sprayed cotton leaf discs, anti-feeding effect. Format: in vivo. The following applies: foliar, 72 h, application rate of 200 ppm, L1 larvae, 3 days after infestation. The essentials: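 Cotton leaf discs on agar sprayed with aqueous test solutions made from 10,000 ppm DMSO stocks, dried, then infested with five L1 larvae. Anti-feeding effect scored 3 days after infestation against untreated discs; control counted when anti-feedant effect exceeds untreated.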

In series [7] the test system is Plutella xylostella (Diamond Back Moth). Put plainly: Example B12: Plutella xylostella, treated artificial diet, mortality. Format: in vivo. The note with it: 120 h, application rate of 200 ppm, L2 larvae, 5 days after infestation. On the procedure:
24-well microtiter plates with artificial diet were treated with aqueous test solutions prepared from 10,000 ppm DMSO stock solutions by pipetting. After drying, the plates were infested with L2 larvae (10 to 15 per well). The samples were assessed for mortality 5 days after infestation.

The test system of series [8] is Euschistus heros (Neotropical Brown Stink Bug). Put plainly: Example B5: Euschistus heros, sprayed soybean leaves, mortality. Format: in vivo. The following applies: 120 h, application rate of 200 ppm, N2 nymphs, 5 days after infestation. On the procedure: Soybean leaves on agar in 24-well microtiter plates were sprayed with aqueous test solutions prepared from 10,000 ppm DMSO stock solutions. After drying the leaves were infested with N2 nymphs. The samples were assessed for mortality 5 days after infestation.

For series [9], the system named is Spodoptera littoralis (Egyptian Cotton Leaf Worm). The series can be described thus: Example B18: Spodoptera littoralis, compound in agar absorbed by lettuce roots, mortality, anti-feedant effect and growth inhibition. Format: in vivo. The following applies: 144 h, test rate of 12.5 ppm, uptake by lettuce roots, Spodoptera eggs, 6 days after infestation, read-out: effect in at least one of the three categories (mortality, anti-feeding, or growth inhibition). The essentials: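 Compound from 10,000 ppm DMSO stock mixed into agar; lettuce seeds grew 7 days, taking compound up via roots into the lid plate. Cut leaves infested with Spodoptera eggs; mortality, anti-feedant effect and growth inhibition scored against untreated samples 6 days after infestation.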

For series [10] the test system is unchanged. The series can be described thus: Example B17: Spodoptera littoralis, sprayed cotton leaf discs, mortality, anti-feeding effect and growth inhibition. The series is classed as in vivo. The following applies: foliar, 72 h, application rate of 200 ppm, L1 larvae, 3 days after infestation, read-out: control (at least one of mortality, anti-feedant effect, growth inhibition). The essentials:
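Cotton leaf discs on agar sprayed with aqueous dilutions of 10,000 ppm DMSO stocks, dried, then infested with five L1 larvae. Mortality, anti-feeding and growth inhibition scored against untreated discs 3 days after infestation. Control recorded when any one category exceeds the untreated sample.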

Series [11] concerns Plutella xylostella (Diamond Back Moth). The series can be described thus: Example B10: Plutella xylostella, treated artificial diet, growth inhibition. Format: in vivo. The note with it: 120 h, application rate of 200 ppm, L2 larvae, 5 days after infestation. The method, boiled down: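 Artificial diet treated with aqueous dilutions prepared from 10,000 ppm DMSO stocks, dried, then infested with 10-15 L2 larvae per well. Growth inhibition scored against untreated samples 5 days after infestation.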

Series [12] concerns Diabrotica balteata (Corn Root Worm). The series can be described thus: Example B2: Diabrotica balteata, sprayed maize sprouts, mortality and growth inhibition. Format: in vivo. The note with it: 96 h, application rate of 200 ppm, L2 larvae, 4 days after infestation, read-out: effect in at least one of the two categories (mortality or growth inhibition). On the procedure:
Maize sprouts placed onto an agar layer in 24-well microtiter plates were treated with aqueous test solutions prepared from 10,000 ppm DMSO stock solutions by spraying. After drying, the plates were infested with L2 larvae (6 to 10 per well). The samples were assessed for mortality and growth inhibition in comparison to untreated samples 4 days after infestation.

For series [13], the system named is Spodoptera littoralis (Egyptian Cotton Leaf Worm). The series can be described thus: Example B20: Spodoptera littoralis, compound in agar absorbed by lettuce roots, mortality. The note with it: 144 h, test rate of 12.5 ppm, uptake by lettuce roots, Spodoptera eggs, 6 days after infestation. The series is classed as in vivo. The method, boiled down: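 Compound from a 10,000 ppm DMSO stock mixed into agar; lettuce grown on it for 7 days to take up compound via roots, then leaves cut into lid plate. Spodoptera eggs applied on humid blotting paper; mortality scored 6 days after infestation.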

Series [14] deals with Plutella xylostella (Diamond Back Moth). Put plainly: Example B13: Plutella xylostella, treated artificial diet, mortality and growth inhibition. The series is classed as in vivo. The following applies: 120 h, application rate of 200 ppm, L2 larvae, 5 days after infestation, read-out: effect in at least one of the two categories (mortality or growth inhibition). The method, then:
24-well microtiter plates with artificial diet were treated with aqueous test solutions prepared from 10,000 ppm DMSO stock solutions by pipetting. After drying, the plates were infested with L2 larvae (10 to 15 per well). The samples were assessed for mortality and growth inhibition in comparison to untreated samples 5 days after infestation.

Series [15] deals with Tetranychus urticae (Two-Spotted Spider Mite). The series can be described thus: Example B21: Tetranychus urticae, sprayed bean leaf discs, mortality. Format: in vivo. The following applies: foliar, 192 h, application rate of 200 ppm, mixed population (mobile stages), 8 days after infestation. The method, then:
Bean leaf discs on agar in 24-well microtiter plates were sprayed with aqueous test solutions prepared from 10,000 ppm DMSO stock solutions. After drying the leaf discs were infested with a mite population of mixed ages. The samples were assessed for mortality on mixed population (mobile stages) 8 days after infestation.

Series [16] deals with Myzus persicae (Green Peach Aphid). The series can be described thus: Example B8: Myzus persicae, sprayed sunflower leaf discs, mortality. Format: in vivo. The following applies: foliar, 144 h, application rate of 200 ppm, leaf disc spray, aphid population of mixed ages, 6 days after infestation. On the procedure:
Sunflower leaf discs were placed onto agar in a 24-well microtiter plate and sprayed with aqueous test solutions prepared from 10,000 ppm DMSO stock solutions. After drying, the leaf discs were infested with an aphid population of mixed ages. The samples were assessed for mortality 6 days after infestation.

For series [17] the test system is unchanged. Put plainly: Example B9: Myzus persicae, roots of pea seedlings in test solution, mortality. The series is classed as in vivo. The following applies: 144 h, test rate of 24 ppm, 6 days. The method, then:
Roots of pea seedlings infested with an aphid population of mixed ages were placed directly into aqueous test solutions prepared from 10,000 DMSO stock solutions. The samples were assessed for mortality 6 days after placing seedlings into test solutions.

`C=Cc1cnc(-c2cn3cnc(C(F)(F)F)cc3n2)c(S(=O)(=O)CC)c1` [Example H6, 2-(3-ethylsulfonyl-5-vinyl-2-pyridyl)-7-(trifluoromethyl)imidazo[1,2-c]pyrimidine]: the melting point fell in the range of 174 to 176 °C.

On to `CCS(=O)(=O)c1cc(-c2cc(F)cc(F)c2)cnc1-c1cn2cnc(C(F)(F)F)cc2n1` [Compound P14], for which the mortality at 200 ppm in series [1], in series [2], in series [7], in series [8], in series [15] and in series [16] was at least 80% throughout. Also, in series [3], the pest or weed control at 12.5 ppm is at least 80%. In addition, the pest or weed control at 200 ppm in series [4] and in series [6] was at least 80% each time. The percent effect (mortality or growth inhibition) at 200 ppm in series [5], in series [12] and in series [14] was at least 80% throughout. Moreover, the percent effect (mortality, anti-feeding or growth inhibition) at 12.5 ppm in series [9] was at least 80%. In [10], the percent control (mortality, anti-feedant effect or growth inhibition) at 200 ppm is at least 80%. The same molecule returned an inhibition at 200 ppm in series [11] of at least 80%. In [13], this molecule gave a mortality at 12.5 ppm of at least 80%.

As to `CCS(=O)(=O)c1cc(CC#N)cnc1-c1cn2cnc(C(F)(F)F)cc2n1` [Compound P30, 2-[5-ethylsulfonyl-6-[7-(trifluoromethyl)imidazo[1,2-c]pyrimidin-2-yl]-3-pyridyl]acetonitrile], the mortality at 200 ppm in series [1] and in series [8] was at least 80% in each case. In [17], the mortality at 24 ppm was at least 80%. The percent effect (mortality or growth inhibition) at 200 ppm in [5], in series [12] and in [14] was at least 80% each time. In series [11], this molecule gave an inhibition at 200 ppm of at least 80%.

As a reminder, the melting point is the temperature, or range, at which the solid turns liquid. One may read the mortality as the percentage killed. By inhibition is commonly meant the percentage by which the read-out fell short of the control. Lower therefore signals little suppression.
